The text below walks through data of article PMC9150102 (Journal of Medicinal Chemistry, 2022).

A short description of series [1]: Acute toxicity (LD50) in mice. The settings on record: male, Albino Swiss CD-1, mouse, in vivo, po.
Protocol: Acute toxicity (LD50) was preliminarily evaluated in mice following i.v. and oral drug administration.
Control animals received the vehicle only.
Drug toxicity studies in mice
Acute toxicity was determined in CD1 mice. Separate mice groups were either orally treated, or
intravenously injected, with increasing doses of the tested substance to identify the dose causing 50%
mortality (LD50). Acute mortality was assessed at 30 min after compound administration; survival was
For series [2] the following is noted: cited from earlier work.
A further series deals with Albino Swiss CD-1 mice. Set-up: method as in PMID 36153005. The settings on record: i.v. administration; cited from earlier work.
For series [3], the target named is T1, Na^+/K^+ ATPase-alpha1 isoform purified from dog kidneys (Canis lupus familiaris, UniProt P50997).
T1 construct: excised from 1–3-year-old male beagle dogs; from tissue; host or cells: dog (beagle) kidney outer medulla, Jørgensen purification
Details: method as in PMID 36153005. The settings on record: dog renal preparations; cited from earlier work.

In series [4] the target is T1, Na^+/K^+ ATPase-alpha1 isoform purified from dog kidneys. The series can be described thus: Na+/K+ ATPase activity inhibition, purified dog kidney enzyme (32P-ATP hydrolysis). The class given is biochemical. How it is done: Compounds were tested in a concentration range from 10^–9 to 10^–4 M on a purified renal Na^+/K^+ ATPase preparation with a specific activity of 14 μmol/min/mg protein.
Figure 2 Na^+/K^+ ATPase activity inhibition in a dog purified enzyme preparation. All compounds were tested in a concentration range from 10^–9 to 10^–4 M in comparison to ouabain.
The inhibitory effect of compounds was tested at multiple concentrations on Na^+/K^+ ATPase-alpha1 isoform purified from dog kidneys. […]
Renal Na+/K+ ATPase purification and activity
Purification of renal Na+/K+ ATPase was performed according to the method of Jørgensen2. Kidneys were excised from 1–3-year-old male beagle dogs, obtained from the General Pharmacology Department of Sigma-tau, Pomezia, Italy, under pentobarbital anesthesia. Kidneys were sliced and the outer medulla was dissected, pooled and suspended (1g in 10 ml) in a sucrose-histidine solution, containing 250 mM sucrose, 30 mM histidine and 5 mM EDTA, pH 7.2 and homogenized. The homogenate was centrifuged at 6,000 g for 15 min, the supernatant was decanted and centrifuged at 48,000 g for 30 min. The pellet was suspended in the sucrose-histidine buffer and incubated for 20 min with a sodium-dodecyl-sulphate (SDS) solution, dissolved in a gradient buffer, containing 25 mM imidazole and 1 mM EDTA, pH 7.5. The sample was layered on the top of a sucrose discontinuous gradient (10, 15 and 29.4%) and centrifuged at 60,000 g for 115 min. The final pellet was suspended in the gradient buffer.
Na+/K+ ATPase activity was assayed by measuring 32P-ATP hydrolysis, as previously described3.
Increasing concentrations of the standard ouabain, or tested compound, were incubated with 0.3 μg of purified dog kidney enzyme for 10 min at 37°C in 120 μl final volume of a medium, containing 140 mM NaCl, 3 mM MgCl2, 50 mM Hepes-Tris, 3 mM ATP, pH 7.5. Then, 10 μl of incubation solution containing 10 mM KCl and 20 nCi of 32P-ATP (3-10 Ci/mmol, Perkin Elmer) were added, the reaction continued for 15 min at 37°C and was stopped by acidification with 20% ice-cold perchloric acid.
32P was separated by centrifugation with activated Charcoal (Norit A, Serva) and the radioactivity was measured. Effects of increasing concentrations of the tested compound were compared to ouabain, as positive standard, and to vehicle (control) at 37°C. The inhibitory activity was expressed as percent of activity in control. The concentration of compound causing 50% inhibition of the Na+/K+ ATPase activity (IC50) was calculated by non-linear fitting of data points (KaleidagraphTM, Sinergy Software). […]

The target in the next series is T2, SERCA2a (Cavia porcellus, UniProt A0A286XFU8).
T2 construct: from tissue; host or cells: guinea pig left ventricle, SR-enriched microsomes
T2 sequence (A0A286XFU8 entry or part of it): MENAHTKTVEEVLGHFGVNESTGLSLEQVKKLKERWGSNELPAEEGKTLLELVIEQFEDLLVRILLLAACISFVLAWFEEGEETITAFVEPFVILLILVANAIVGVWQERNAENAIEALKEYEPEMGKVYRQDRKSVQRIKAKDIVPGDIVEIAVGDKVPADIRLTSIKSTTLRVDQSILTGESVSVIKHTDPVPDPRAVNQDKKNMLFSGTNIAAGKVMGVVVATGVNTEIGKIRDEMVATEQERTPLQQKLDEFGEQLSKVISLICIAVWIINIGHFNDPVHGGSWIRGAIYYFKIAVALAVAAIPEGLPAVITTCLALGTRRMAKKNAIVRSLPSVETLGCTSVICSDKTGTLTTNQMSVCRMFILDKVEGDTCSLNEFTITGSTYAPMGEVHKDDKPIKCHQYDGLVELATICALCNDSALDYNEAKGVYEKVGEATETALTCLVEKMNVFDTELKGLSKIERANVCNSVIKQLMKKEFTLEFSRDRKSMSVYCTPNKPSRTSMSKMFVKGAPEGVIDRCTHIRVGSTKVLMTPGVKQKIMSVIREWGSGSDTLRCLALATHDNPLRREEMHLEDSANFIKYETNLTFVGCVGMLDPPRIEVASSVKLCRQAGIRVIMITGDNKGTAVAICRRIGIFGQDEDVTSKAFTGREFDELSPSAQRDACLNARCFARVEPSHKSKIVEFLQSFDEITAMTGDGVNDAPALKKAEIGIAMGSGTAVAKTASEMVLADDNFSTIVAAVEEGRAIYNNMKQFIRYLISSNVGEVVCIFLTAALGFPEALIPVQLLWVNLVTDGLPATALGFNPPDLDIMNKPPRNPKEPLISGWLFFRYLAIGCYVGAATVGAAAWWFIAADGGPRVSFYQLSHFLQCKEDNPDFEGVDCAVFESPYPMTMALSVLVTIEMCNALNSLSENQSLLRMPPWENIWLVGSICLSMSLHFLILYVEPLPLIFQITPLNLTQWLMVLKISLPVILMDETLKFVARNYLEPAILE
Briefly: SERCA2a ATPase activity, Ca2+ dependency in cardiac SR microsomes from healthy guinea pigs. The class given is biochemical, guinea pig. The settings on record: for SERCA2a–Ca2+ affinity (KdCa) modulation (words): 10 and 100 nM, healthy guinea pig SR preparations. Here is the method:
SERCA2a ATPase activity was assessed in SR preparations from healthy guinea pig hearts. Ca^2+ dependency of ATPase activity was measured, and kinetic parameters (KdCa and Vmax) were estimated at compound concentrations of 10 and 100 nM.
[…] […] Data are the mean ± SEM. *p < 0.05 (one-way RM ANOVA plus post hoc Tukey’s multiple comparisons or paired t-test).
Measurements were performed in cardiac SR microsomes (guinea pig) and in whole tissue homogenates (rat). Cardiac preparations included SERCA2a and PLN. To test for PLN involvement in the effect of compounds, SERCA1 activity was measured in PLN-free microsomes (from guinea pig skeletal muscle) before and after reconstitution with the synthetic PLN1–32 inhibitory fragment at a ratio of 300:1 for PLN/SERCA. […] Either an increase in Vmax (rat) or a decrease in KdCa (increased Ca^2+ affinity) (guinea pig) stands for enhancement of SERCA function. […]
Left ventricles (LV) were dissected from rat and guinea -pig of healthy and failing preparations and frozen until use. Tissues were homogenized, subjected to centrifugation to obtain SR -enriched microsomes and sarcomeric proteins were extracted, as previously described 4.
(§1) In the case of guinea-pig hearts, LV tissues were homogenized in 4 volumes of 10 mM NaHCO3, 1 mM PMSF, 10 μg/ml aprotinin and leupeptin (pH 7) and centrifuged at 12,000g for 15 minutes. Supernatants were filtered and centrifuged at 100,000 g for 30 min. Contractile proteins were extracted by suspending the pellets with 0.6 M KCl, 30 mM histidine, pH 7 and further centrifugation at 100,000 g for 30 min.
(§2) Final pellets were reconstituted with 0.3 M sucrose, 30 mM histidine, pH 7, to obtain SR-enriched […]
SERCA2a ATPase activity was measured as the rate of 32P-ATP release at multiple Ca2+ concentrations (100-2000 nM) in the absence and presence of tested compounds, as previously described5. Increasing concentrations of each compound were pre-incubated with 2 μg of cardiac preparations for 5 min at 4° C in 80 μl of a solution containing 100 mM KCl, 5 mM MgCl2, 1 μM A23187, 20 mM Tris, pH 7.5. Then, 20 μl of 5 mM Tris-ATP containing 50 nCi of 32P-ATP (3-10 Ci/mmol, Perkin Elmer) were added. The ATP hydrolysis was continued for 15 min at 37°C and the reaction was stopped by acidification with 100 μl of 20% ice-cold perchloric acid. 32P was separated by centrifugation with activated charcoal (Norit A, Serva) and the radioactivity was measured. SERCA2a-dependent ATPase activity was identified as the portion of total hydrolytic activity inhibited by cyclopiazonic acid (CPA, 10 µM). Technical replicates were used to ensure the reliability of single values. […]

The test system of series [5] is SERCA1 reconstituted with PLN1–32 fragment. Briefly: SERCA1 ATPase activity after reconstitution with PLN1-32 fragment. The class given is biochemical, guinea pig. Particulars: PLN/SERCA 300:1. Here is the method:
Data are the mean ± SEM. *p < 0.05 (one-way RM ANOVA plus post hoc Tukey’s multiple comparisons or paired t-test).
Measurements were performed in cardiac SR microsomes (guinea pig) and in whole tissue homogenates (rat). Cardiac preparations included SERCA2a and PLN. To test for PLN involvement in the effect of compounds, SERCA1 activity was measured in PLN-free microsomes (from guinea pig skeletal muscle) before and after reconstitution with the synthetic PLN1–32 inhibitory fragment at a ratio of 300:1 for PLN/SERCA. […] Either an increase in Vmax (rat) or a decrease in KdCa (increased Ca^2+ affinity) (guinea pig) stands for enhancement of SERCA function.
(rats). As verified by Western blot, cardiac microsomes preparations included SERCA2a and PLN and skeletal muscle ones included SERCA1 only.
SERCA stimulation4, compounds were also tested on SERCA1 in microsomes of guinea-pig skeletal muscle (PLN-free) before and after reconstitution with the PLN1-32 inhibitory fragment at a ratio of 300:1 […]
Tissues were homogenized, subjected to centrifugation to obtain SR -enriched microsomes and sarcomeric proteins were extracted, as previously described 4.
as §1, §2
SERCA2a ATPase activity was measured as the rate of 32P-ATP release at multiple Ca2+ concentrations (100-2000 nM) in the absence and presence of tested compounds, as previously described5. Increasing concentrations of each compound were pre-incubated with 2 μg of cardiac preparations for 5 min at 4° C in 80 μl of a solution containing 100 mM KCl, 5 mM MgCl2, 1 μM A23187, 20 mM Tris, pH 7.5. Then, 20 μl of 5 mM Tris-ATP containing 50 nCi of 32P-ATP (3-10 Ci/mmol, Perkin Elmer) were added. The ATP hydrolysis was continued for 15 min at 37°C and the reaction was stopped by acidification with 100 μl of 20% ice-cold perchloric acid. 32P was separated by centrifugation with activated charcoal (Norit A, Serva) and the radioactivity was measured. SERCA2a-dependent ATPase activity was identified as the portion of total hydrolytic activity inhibited by cyclopiazonic acid (CPA, 10 µM). Technical replicates were used to ensure the reliability of single values.
Reconstitution of SERCA1 with PLN1-32 synthetic fragment
Adult healthy male guinea-pigs were used to prepare SERCA1-enriched SR microsomes from fast-twitch hind leg muscles. Microsomes were prepared as described for SERCA2a preparations. For reconstitution experiments, SERCA1 (PLN-free) was pre-incubated with synthetic PLN1-32 fragment (canine sequence, Biomatik Corporation, Canada) in 20 mM imidazole, pH 7, at 1:300 SERCA1:PLN ratio for 30 min at room temperature. After pre-incubation, SERCA1 (PLN-free) alone, or reconstituted with PLN1-32 […]
fragment, was utilized for SERCA activity measurement by using 32P-ATP hydrolysis method at different

The target of series [6] is skeletal SERCA1 (sarcoplasmic reticulum calcium ATPase 1) (guinea pig (endogenous in skeletal muscle)).
[7] abbreviates: read-out: NKA Inhibition (IC50 µM).

Like-named read-outs stand apart in the source and are kept apart here.

In series [1], `C[C@]12CCC(=NOCCN)C[C@@H]1C(=O)C[C@@H]1[C@@H]2CC[C@]2(C)C(=O)CC[C@@H]12` (mixture of isomers) [istaroxime] returned an LD50 at 24 h of 200 mg/kg. Further, the half-life in series [2] is on record as roughly 1 h. In addition, the LD50 in the series on Albino Swiss CD-1 mice is listed as 23 mg/kg. For the same compound, the IC50 in series [3] is 0.14 µM.

Regarding `C[C@]12CC/C(=C\CCC(=O)O)C[C@@H]1[C@@H](O)C[C@@H]1[C@@H]2CC[C@]2(C)C(=O)CC[C@@H]12` [Compound 1], the IC50 in series [4] is greater than 100 µM. Moreover, the “SERCA2a Stimulation @100 nM (DELTA% KdCa)” value on SERCA2a (100 nM) was -15%. Moreover, the “SERCA2a KdCa reduced by” value at SERCA2a (100 nM, guinea pig preparation) turned out to be 15%.

As to `C[C@]12CC/C(=C/CCC(=O)O)C[C@@H]1[C@@H](O)C[C@@H]1[C@@H]2CC[C@]2(C)C(=O)CC[C@@H]12` [Compound 2], the IC50 in series [4] is greater than 100 µM. Besides, the “SERCA2a–Ca2+ affinity (KdCa) modulation (words)” value (from here on “SERCA2a–Ca2+ affinity”) at SERCA2a is “inactive”.

As to `C[C@]12CC/C(=C\CCC(=O)O)C[C@@H]1[C@H](O)C[C@@H]1[C@@H]2CC[C@]2(C)C(=O)CC[C@@H]12` [Compound 3], the figures for the “SERCA2a–Ca2+ affinity” value at SERCA2a and at SERCA2a (listed as compound 3) were “inactive” and “only a trend to SERCA2a KdCa reduction”, respectively.

As to `C[C@]12CC/C(=C/CCC(=O)O)C[C@@H]1[C@H](O)C[C@@H]1[C@@H]2CC[C@]2(C)C(=O)CC[C@@H]12` [Compound 4], the IC50 in series [4] is greater than 100 µM. Further, at SERCA2a, the “SERCA2a–Ca2+ affinity” value is “inactive”.

`C[C@]12CC[C@H](CCCC(=O)O)C[C@@H]1[C@H](O)C[C@@H]1[C@@H]2CC[C@]2(C)C(=O)CC[C@@H]12` [Compound 6] displayed an IC50 in series [4] greater than 100 µM. Further, at SERCA2a (100 nM), the “SERCA2a Stimulation @100 nM (DELTA% KdCa)” value is -23%.

Regarding `CCOC(=O)CCC[C@H]1CC[C@@]2(C)[C@H](C1)[C@@H](O)C[C@@H]1[C@@H]2CC[C@]2(C)C(=O)CC[C@@H]12` [Compound 7], in series [4] (setting [7]), the half-maximal inhibitory concentration (IC50) was greater than 100 µM. Further, at SERCA2a (100 nM), the “SERCA2a Stimulation @100 nM (DELTA% KdCa)” value is listed as -23%.

Take `C[C@]12CC[C@H](CC(=O)O)C[C@@H]1[C@H](O)C[C@@H]1[C@@H]2CC[C@]2(C)C(=O)CC[C@@H]12` [Compound 9]: the “SERCA2a–Ca2+ affinity” value on SERCA2a is “inactive”.

As to `CCOC(=O)C[C@H]1CC[C@@]2(C)[C@H](C1)[C@@H](O)C[C@@H]1[C@@H]2CC[C@]2(C)C(=O)CC[C@@H]12` [Compound 10], the IC50 in series [4] is greater than 100 µM. Besides, on SERCA2a (100 nM), the “SERCA2a Stimulation @100 nM (DELTA% KdCa)” value was -26%.

On to `C[C@]12CC[C@H](CCCCCC(=O)O)C[C@@H]1[C@@H](O)C[C@@H]1[C@@H]2CC[C@]2(C)C(=O)CC[C@@H]12` [Compound 11], for which the IC50 in series [4] (setting [7]) was greater than 100 µM. Further, the “SERCA2a Stimulation @100 nM (DELTA% KdCa)” value at SERCA2a (100 nM) is on record as -20%. In addition, the “SERCA2a–Ca2+ affinity” value on SERCA2a is recorded as “slightly less active”.

Regarding `CCOC(=O)CCCCC[C@H]1CC[C@@]2(C)[C@H](C1)[C@@H](O)C[C@@H]1[C@@H]2CC[C@]2(C)C(=O)CC[C@@H]12` [Compound 12], in series [4] (setting [7]), the IC50 was greater than 100 µM. Besides, the “SERCA2a–Ca2+ affinity” value on SERCA2a is “slightly less active”.

As for “PLN1–32 fragment: synthetic PLN1-32 inhibitory fragment of phospholamban (canine sequence, Biomatik) (MEKVQYLTRSAIRRASTIEMPQQARQKLQNLF) [reference compound]”, the “SERCA1 KdCa increased by (reconstitution with PLN1–32)” value in series [5] is 23–25%.

Regarding “synthetic PLN(1-32) inhibitory fragment of phospholamban (from UniProt P26678 1-32) (peptide)”, in series [6], the increase of KdCa (Ca2+ dependency of SERCA1 ATPase activity, 32P-ATP, 37 °C) after reconstitution of skeletal muscle microsomes with PLN(1-32) at 300:1 PLN/SERCA; Vmax not affected lay within 23 to 25%.
